Experimental data from patent US11149046B2, “Antibacterial sideromycins” (Hsiri Therapeutics, Inc., priority 2014, dated 2021).
In brackets after ≈: the same amount, converted by molar mass. Several values for one entry are separate records, joined by “and”; a condition that tells them apart may be missing. Equal values may be shown once. Entries after “also recorded” stand apart in the source; their conditions may differ. Read-outs that look alike come from different tables or passages of the source.

Columns and labels:
[1] = tested on: M. luteus ATCC-10240; assay: MIC determination; type: cell-based; conditions: iron deficient media
[2] = tested on: M. vaccae IMET-10760; assay: MIC determination; type: cell-based; conditions: iron deficient media
[3] = tested on: E. coli DC2 (permeability mutant); assay: MIC determination; type: cell-based
Excerpt: (§1) Table 3 that was included in the first Example 4 section provides antibacterial data for the first synthetic sideromycins we prepared and studied. The second Example 4 section elaborated and expanded on that data with inclusion of representative antibacterial data in the text and associated pictures of Petri dish assays. MIC (minimum inhibition concentration) is given in μM and AD (agar diffusion zones of inhibition are given in mm from Kirby-Bauer Petri dish growth inhibition studies).

[4] = tested on: E. coli DC0; assay: MIC determination; type: cell-based; conditions: for MIC: Escherichia coli
Excerpt: as §1

[5] = tested on: B. subtilis ATCC-6633; assay: MIC determination; type: cell-based; conditions: iron deficient media
[6] = tested on: P. aeruginosa KW799/61 (permeability mutant); assay: microbe, parasite or virus in culture; type: cell-based, Pseudomonas aeruginosa
Excerpt: (§2) MIC (minimum inhibition concentration) is given in μM and AD (agar diffusion zones of inhibition are given in mm from Kirby-Bauer Petri dish growth inhibition studies).

[7] = tested on: A. baumannii ATCC 17961; assay: MIC determination; type: cell-based, Acinetobacter baumannii
Excerpt: as §1

[8] = tested on: S. aureus SG511; assay: MIC determination; type: cell-based; conditions: iron deficient media
[9] = tested on: P. aeruginosa KW799/wt; assay: MIC determination; type: cell-based, Pseudomonas aeruginosa; conditions: for MIC: Pseudomonas aeruginosa, KW799/WT
Excerpt: as §1

[10] = tested on: A. baumannii ARC 3486; assay: MIC determination; type: cell-based; conditions: Acinetobacter baumannii, ARC3486; Table 2; read-out: in vitro activity (MIC)
[11] = tested on: S. Aureus ISR 14-001; assay: MIC determination; type: cell-based; conditions: Staphylococcus aureus; Table 2; read-out: in vitro activity (MIC)
[12] = tested on: A. baumannii BAA 1793; assay: Agar diffusion assay; type: cell-based, Acinetobacter baumannii; conditions: M-HII media, 0.5 mM (ciprofloxacin 5 μg/ml), 50 uL per well, 37° C. 20 hrs, P unclear zone
Method: (§3) Antibiotic activity was determined using agar diffusion assays against representative Gram-negative bacteria, including Pseudomonas aeruginosa (Pa6), and several multidrug resistant forms of Acinetobacter baumannii. Representative results are shown in Table 1 and a corresponding picture of an actual petri dish showing the agar diffusion results (FIG. 4). […]. [table]

[13] = tested on: A. baumannii BAA 1710; assay: Agar diffusion assay; type: cell-based, Acinetobacter baumannii; conditions: M-HII media, 0.5 mM (ciprofloxacin 5 μg/ml), 50 uL per well, 37° C. 20 hrs, P unclear zone
Method: as §3

[14] = tested on: A. baumannii BAA 1797; assay: Agar diffusion assay; type: cell-based, Acinetobacter baumannii; conditions: M-HII media, 0.5 mM (ciprofloxacin 5 μg/ml), 50 uL per well, 37° C. 20 hrs, P unclear zone
Method: as §3

[15] = tested on: A. baumannii BAA 1800; assay: Agar diffusion assay; type: cell-based, Acinetobacter baumannii; conditions: M-HII media, 0.5 mM (ciprofloxacin 5 μg/ml), 50 uL per well, 37° C. 20 hrs
Method: as §3

[16] = tested on: Pseudomonas aeruginosa 01 (Pa01); assay: MIC determination; type: cell-based; conditions: Pseudomonas aeruginosa
Excerpt: as §1

[17] = tested on: A. baumannii ISR 14-0061; assay: MIC determination; type: cell-based; conditions: Acinetobacter baumannii, ISR140061; Table 2; read-out: in vitro activity (MIC)
[18] = tested on: P. aeruginosa Pa6; assay: Agar diffusion assay; type: cell-based, Pseudomonas aeruginosa; conditions: M-HII media, 0.5 mM (ciprofloxacin 5 μg/ml), 50 uL per well, 37° C. 20 hrs, P unclear, V very unclear zone
Method: as §3

[19] = tested on: Acinetobacter baumannii ATCC 17961; assay: In vivo activity against Acinetobacter baumannii in mice (FIG. 7); conditions: 50 mg/kg IV at 30 min and 24 hr post inoculation; IP 10^8 A. baumannii ATCC 17961; female ICR mice
Method: Y-axis is percent surviving; x-axis is days after inoculation. Note: 5/5 Vehicle and 5/5 daptomycin treated mice were all dead at Day 1; […] female ICR mice; IP inoculation with 10^8 Acinetobacter baumannii ATCC 17961; Treatment administered IV at 30 min and 24 hr post inoculation; Treatments—Ciprofloxacin 50 mg/kg, HT-10100 mg/kg, HT-10 50 mg/kg, HT-10 25 mg/kg, HT-10 10 mg/kg, HT-10 5 mg/kg, daptomycin 50 mg/kg, Vehicle.

[20] = tested on: Burkholderia multivorans AU0100; assay: MIC determination; type: cell-based; conditions: Table 2, read-out: in vitro activity (MIC)
[21] = tested on: strains of Pseudomonas and Acinetobacter; assay: Antibacterial activity, general statements; type: cell-based; conditions: general statements of the text
Method: Antibiotic activity was determined using agar diffusion assays against representative Gram-negative bacteria, including Pseudomonas aeruginosa (Pa6), and several multidrug resistant forms of Acinetobacter baumannii. Representative results are shown in Table 1 and a corresponding picture of an actual petri dish showing the agar diffusion results (FIG. 4). […].

[22] = tested on: multi-drug resistant Acinetobacter; assay: Dose dependent agar diffusion (FIG. 5); type: cell-based
Excerpt: Note Daptomycin is not active (arrow),

[23] = tested on: S. Aureus ISR-002; assay: MIC determination; type: cell-based; conditions: Staphylococcus aureus; Table 2; read-out: in vitro activity (MIC)
[24] = tested on: Pa6; assay: MIC determination; type: cell-based, Pseudomonas aeruginosa; conditions: Pseudomonas aeruginosa; Table 5; read-out: MIC
Excerpt: as §2

[25] = tested on: E. coli DC0; assay: Agar diffusion (Kirby-Bauer) assay; type: cell-based; conditions: Table 5
Excerpt: as §1

[26] = tested on: E. coli DC2; assay: Agar diffusion (Kirby-Bauer) assay; type: cell-based; conditions: Table 5
Excerpt: as §1

[27] = tested on: Pseudomonas aeruginosa KW799/wt; assay: Agar diffusion (Kirby-Bauer) assay; type: cell-based; conditions: wild type Pseudomonas; FIG. 8, 9, 12; listed as YML-1-18
Excerpt: as §1

[28] = tested on: Pa-Da-1304 CF patient isolate; assay: MIC determination; type: cell-based, Pseudomonas aeruginosa; conditions: Pseudomonas aeruginosa
Excerpt: as §2
We obtained a clinical isolate of Pseudomonas from a cystic fibrosis patient.

[29] = tested on: Acinetobacter baumannii ATCC 17961; assay: Agar diffusion (Kirby-Bauer) assay, with and without hydrogel; type: cell-based; conditions: Acinetobacter; FIG. 8, 9, 10
Excerpt: as §1
We investigated whether the sideromycin absorbed in the gel be able to diffuse out of the gel and into the agar to effect antibacterial growth. As a control, the sideromycin alone, without gel, was added in a separate 9 mm well, as usual.
The second question was whether the sideromycin continue to be released and be able to effect bacterial growth inhibition over extended periods. Thus, additional identical agar plates were prepared and stored at 4° C. for 24, 48 and 72 hours to allow diffusion of the sideromycin (control and gel forms) into the agar before allowing the bacteria to grow in an incubator. Then after each time period, the Petri dishes were incubated at 37° C. for 20 hours to promote bacteria growth in the agar. […] The study has been extended to as long as 168 hours (one week) with retention of antibiotic effectiveness.

[30] = tested on: Pa4; assay: MIC determination; type: cell-based, Pseudomonas aeruginosa; conditions: Pseudomonas aeruginosa; Table 5
Excerpt: as §1

[31] = iron deficient media, read-out: MIC in Fe(−)MHII Media
[32] = Table 2, read-out: in vitro activity (MIC)
[33] = Acinetobacter baumannii, ATCC17961, Table 2, read-out: in vitro activity (MIC)

CC(=O)Oc1cccc(C(=O)NCCCCN(CC(=O)NC(C(=O)NC2C(=O)N3C2SC(C)(C)C3C(=O)[O-])c2ccccc2)C(=O)c2cccc(OC(C)=O)c2OC(C)=O)c1OC(C)=O.[Na+] (stereo not drawn) [HKI-9924154]
MIC in Fe(−)MHII Media [1]: >10 mg/L
MIC in Fe(−)MHII Media [2]: >10 mg/L
MIC in Fe(−)MHII Media ([3]; iron deficient media): <0.005 mg/L
MIC in Fe(−)MHII Media ([4]; iron deficient media): <0.005 mg/L
MIC in Fe(−)MHII Media [5]: >10 mg/L
MIC in Fe(−)MHII Media ([6]; iron deficient media): 0.13 mg/L
MIC in Fe(−)MHII Media ([7]; iron deficient media): 0.313 mg/L
MIC [7, 31]: 0.34 µM
MIC ([7]; read-out: MIC): 0.34 µM
MIC in Fe(−)MHII Media [8]: >10 mg/L
MIC in Fe(−)MHII Media ([9]; iron deficient media): 0.04 to 0.052 mg/L

CCCCCCCCCC(=O)N[C@@H](Cc1c[nH]c2ccccc12)C(=O)N[C@H](CC(N)=O)C(=O)N[C@@H](CC(=O)O)C(=O)N[C@@H]1C(=O)NCC(=O)N[C@@H](CCCN)C(=O)N[C@@H](CC(=O)O)C(=O)N[C@H](C)C(=O)N[C@@H](CC(=O)O)C(=O)NCC(=O)N[C@H](CO)C(=O)N[C@@H]([C@H](C)CC(=O)O)C(=O)N[C@@H](CC(=O)c2ccccc2N)C(=O)O[C@@H]1C [daptomycin]
MIC [10]: > 200 µM
MIC [11]: 0.8 µM (≈ 1.3 µg/mL)
zone of inhibition at 500 µM ([12]; Acinetobacter baumannii, BAA1793, read-out: Zone of Growth Inhibition): 0 mm
zone of inhibition at 500 µM ([13]; Acinetobacter baumannii, BAA1710, read-out: Zone of Growth Inhibition): 0 mm
zone of inhibition at 500 µM ([14]; Acinetobacter baumannii, BAA1797, read-out: Zone of Growth Inhibition): 0 mm
zone of inhibition at 500 µM ([15]; Acinetobacter baumannii, BAA1800, read-out: Zone of Growth Inhibition): 0 mm
MIC ([4]; DC0, read-out: in vitro activity (MIC)): > 100 µM
MIC [16, 32]: > 100 µM
MIC [17]: > 100 µM
zone of inhibition at 500 µM ([18]; Pseudomonas aeruginosa, PA6, read-out: Zone of Growth Inhibition): 0 mm
treated mice dead at Day 1 [19]: 5/5
MIC [7, 33]: > 100 µM
MIC [20]: > 100 µM
antibacterial activity (in words) [21]: completely inactive
in vitro activity (in words) [22]: not active
MIC [23]: 0.8 µM (≈ 1.3 µg/mL)

CC(=O)Oc1cccc(C(=O)NCCCCN(CC(=O)N[C@@H](C(=O)N[C@@H]2C(=O)N3C2SC(C)(C)[C@@H]3C(=O)O)c2ccccc2)C(=O)c2cccc(OC(C)=O)c2OC(C)=O)c1OC(C)=O (stereo partly drawn) [YML-I-18]
MIC ([1]; Micrococcus luteus, ATCC10240, read-out: MIC in Fe(−)MHII Media): > 10 mg/L
MIC ([2]; Mycolicibacterium vaccae, IMET10760, read-out: MIC in Fe(−)MHII Media): > 10 mg/L
MIC [24]: > 100 µM
MIC ([3]; Escherichia coli, read-out: MIC in Fe(−)MHII Media): < 0.005 mg/L
MIC ([4]; DC0, iron deficient media, read-out: MIC in Fe(−)MHII Media): < 0.005 mg/L
MIC ([4]; representative strains of E. coli (entries 4-5, Table 3: DC0, DC2), read-out: MIC): < 0.005 mg/L
MIC ([16]; Table 5, read-out: MIC): 0.0156 µM (≈ 0.0143 µg/mL)
AD = agar diffusion inhibition zones [25]: (AD = 32) mm
AD = agar diffusion inhibition zones [26]: (AD = 40) mm
zones of inhibition (in words) [27]: impressive zones of inhibition; also recorded: potently active
MIC ([28]; Table 5): 0.4 to 0.75 µM (≈ 0.367 to 0.688 µg/mL)
MIC ([28]; clinical isolate from a cystic fibrosis patient): 0.4 to 0.75 µM (≈ 0.367 to 0.688 µg/mL)
MIC ([5]; Bacillus subtilis, ATCC6633, read-out: MIC in Fe(−)MHII Media): > 10 mg/L
MIC ([6]; Pseudomonas aeruginosa, read-out: MIC in Fe(−)MHII Media): 0.052 mg/L (≈ 0.0566 µM)
MIC ([7]; Acinetobacter baumannii, ATCC17961, iron deficient media, read-out: MIC in Fe(−)MHII Media): 0.313 mg/L
MIC ([7]; Acinetobacter baumannii, ATCC17961, text, read-out: MIC): 0.156 µg/mL to 0.313 µg/mL and 0.34 µM
MIC ([7]; iron deficient media, listed as HKI-9924116, read-out: MIC in Fe(−)MHII Media): 0.34 µM
MIC ([7]; iron deficient media, listed as YML-1-18, read-out: MIC in Fe(−)MHII Media): 0.156 µM
MIC ([8]; Staphylococcus aureus, SG511, read-out: MIC in Fe(−)MHII Media): > 10 mg/L
zones of inhibition (in words) [29]: impressive zones of inhibition
MIC [30]: 0.03 µM (≈ 0.0275 µg/mL)
MIC ([9]; Table 5, read-out: MIC): 0.0156 to 0.0313 µM (≈ 0.0143 to 0.0287 µg/mL)
MIC [9, 31]: 0.0156 µM (≈ 0.0143 µg/mL)
MIC in Fe(−)MHII Media ([9]; iron deficient media, listed as HKI-9924116): (0.0156 μM
increase in antibiotic activity over ampicillin ([9]; several strains of P. aeruginosas (entries 1 and 2, Table 3)): 16000 fold

O=C(O)c1cn(C2CC2)c2cc(N3CCNCC3)c(F)cc2c1=O [ciprofloxacin, reference compound]
MIC [10]: > 5 µM
MIC [11]: 0.2 µM (≈ 0.0663 µg/mL)
Zone of Growth Inhibition [12]: 0 mm
Zone of Growth Inhibition [13]: 0 mm
Zone of Growth Inhibition [14]: 0 mm
Zone of Growth Inhibition [15]: 0 mm
MIC ([4]; DC0, Table 2, printed E. coli DCO, read-out: in vitro activity (MIC)): 0.2 µM
MIC [16, 32]: 0.2 µM (≈ 0.0663 µg/mL)
MIC [17]: > 5 µM
Zone of Growth Inhibition [18]: 0 mm
MIC [7, 33]: 0.2 µM
MIC [20]: > 5 µM
antibacterial activity (in words) [21]: completely inactive
MIC [23]: > 5 µM
